Data taken from patent publication US9814711B2, “Antitubercular composition comprising rifampicin, isoniazid, ethambutol and pyrazinamide and its process of preparation” (priority 2013, dated 2017).
Structures can show the parent of a compound that is named as a salt.

Key:
[1] = Stability: active ingredient content of coated tablets, initial and after aging at 40° C. and 75% relative humidity; format: physicochemical
[2] = Dissolution time test (pH 6.8 phosphate buffer, 900 mL, paddle 100 rpm, HPLC); format: physicochemical; settings: for % of dissolved actives at 45 min after beginning the Dissolution time test: pH 6.8 phosphate buffer 900 mL paddle 100 rpm
Experimental: The dissolution time of the actives can be measured by introducing one tablet (weight 1090 mg) in 900 mL of water at 37° C. buffered to pH 6.8 with a phosphate buffer wherein the medium is mixed with a paddle at 100 rpm. The phosphate buffer is prepared by dissolving 7 g of anhydrous dibasic sodium phosphate in 5 L of water, and adjusting with phosphoric acid to a pH of 6.8. The percentage of the actives dissolved at a given time can be measured by high performance liquid chromatography (HPLC).

[3] = coated tablet of Example 1, aging 1 month at 40° C. and 75% relative humidity
[4] = coated tablet of Example 1, aging 2 months at 40° C. and 75% relative humidity
[5] = coated tablet of Example 1, initial
[6] = coated tablet of Example 1, aged 1 month at 40° C. and 75% relative humidity
[7] = coated tablet of Example 1, aged 2 months at 40° C. and 75% relative humidity

Row | SMILES | percentage of active ingredient measured relative to the target quantity [1, 3] | percentage of active ingredient measured relative to the target quantity [1, 4] | percentage of active ingredient measured relative to the target quantity [1, 5] | % of dissolved actives at 45 min after beginning the Dissolution time test [2, 6] | % of dissolved actives at 45 min after beginning the Dissolution time test [2, 7] | % of dissolved actives at 45 min after beginning the Dissolution time test [2, 5] | cumulative percentage of active released ([2]; tablet of Example 1, 5 min) | cumulative percentage of active released ([2]; tablet of Example 1, 10 min) | cumulative percentage of active released ([2]; tablet of Example 1, 15 min) | cumulative percentage of active released ([2]; tablet of Example 1, 20 min) | cumulative percentage of active released ([2]; tablet of Example 1, 30 min) | cumulative percentage of active released ([2]; tablet of Example 1, 45 min) | cumulative percentage of active released ([2]; tablet of Example 1, 60 min)
1 | CC[C@@H](CO)NCCN[C@@H](CC)CO [Ethambutol HCl, Ethambutol Hydrochloride] | 100.3% | 101.4% | 100.6% | 100% | 99% | 100% | 84 | 99 | 99 | 99 | 99 | 99 | 99
2 | NNC(=O)c1ccncc1 [Isoniazid] | 97.8% | 98.20% | 100.0% | 98% | 100% | 98% | 86 | 99 | 100 | 100 | 100 | 100 | 100
3 | NC(=O)c1cnccn1 [Pyrazinamide] | 101.2% | 100.5% | 101.3% | 102% | 102% | 102% | 90 | 101 | 102 | 102 | 102 | 102 | 102
